From patent US5952327A, “Phosphonic acid-substituted benzazepinone-n-acetic acid derivatives process for their preparation and pharmaceutical compositions comprising them” (Solvay Pharmaceuticals GmbH, priority 1997, dated 1999)

Key:
[1] = target: neutral endopeptidase (NEP) (E.C. 3.4.24.11) (Homo sapiens, UniProt P08473); assay: In-vitro NEP inhibitory action (hydrolytic degradation of Met-encephalin); assay type: biochemical; details: purified NEP, Met-encephalin substrate, pH 7.4, 37° C.; read-out: IC50 value for NEP inhibition
Sequence of neutral endopeptidase (NEP) (E.C. 3.4.24.11) (P08473 whole entry, species assumed): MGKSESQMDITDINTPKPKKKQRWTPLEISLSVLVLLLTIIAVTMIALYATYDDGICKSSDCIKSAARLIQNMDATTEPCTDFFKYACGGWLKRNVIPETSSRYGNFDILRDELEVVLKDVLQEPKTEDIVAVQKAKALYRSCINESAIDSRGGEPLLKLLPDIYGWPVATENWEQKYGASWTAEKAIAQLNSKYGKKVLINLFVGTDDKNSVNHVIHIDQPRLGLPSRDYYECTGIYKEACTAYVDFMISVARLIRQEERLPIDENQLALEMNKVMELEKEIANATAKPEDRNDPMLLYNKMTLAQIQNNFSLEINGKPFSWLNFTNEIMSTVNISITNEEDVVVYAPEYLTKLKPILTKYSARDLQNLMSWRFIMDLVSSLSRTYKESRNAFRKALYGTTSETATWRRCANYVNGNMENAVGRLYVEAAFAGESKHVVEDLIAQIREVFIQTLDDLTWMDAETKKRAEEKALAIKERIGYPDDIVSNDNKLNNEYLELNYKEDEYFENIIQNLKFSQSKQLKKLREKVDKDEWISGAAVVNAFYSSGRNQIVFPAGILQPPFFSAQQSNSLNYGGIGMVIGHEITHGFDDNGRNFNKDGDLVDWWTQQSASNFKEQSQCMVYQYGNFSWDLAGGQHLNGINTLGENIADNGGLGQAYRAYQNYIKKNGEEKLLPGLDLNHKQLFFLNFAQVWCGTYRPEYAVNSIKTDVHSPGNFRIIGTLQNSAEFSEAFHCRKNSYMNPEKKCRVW
Experimental: In this test, the measure of the inhibitory activity of the substances determined was their IC50 value. The IC50 value of a test substance having enzyme-inhibitory activity is that concentration of the test substance at which 50% of the enzymatic activity of the NEP is blocked.
To carry out the test, respective 100 μl samples of various incubation solutions comprising 10 ng of purified NEP (E.C. 3.4.24.11) and different amounts of test substance and 20 μl substrate (Met-encephalin) and 50 mM tris buffer (tris(hydroxymethyl)aminomethane/HCl, pH 7.4) were prepared. […]
The incubation solutions were incubated for 30 minutes at 37° C. in a shaking water bath. […] The stopped incubation solution was then centrifuged at 12,000×g for 3 minutes, and the concentrations of unreacted substrate and of hydrolysis products formed by the enzymatic reaction were determined in the supernatant. For this purpose, samples of the respective supernatants were separated by high-pressure liquid chromatography (HPLC) on hydrophobicized silica gel, and the products of the enzymatic reaction and unreacted substrate were determined photometrically at a wavelength of 205 nm. […]
The IC50 value of the test substances was calculated in a known manner from the concentrations of hydrolysis products and unreacted substrate measured in the different samples.

[2] = test system: diuresis/natriuresis in volume-loaded rats; assay: In-vivo effect on diuresis/natriuresis in volume-loaded rats; parameters: species or system male Wistar rats; details: 60 min collection
Experimental: The in-vivo activity was investigated in volume-loaded rats. In this experiment, a high cardiac filling pressure was produced by an infusion of isotonic sodium chloride solution, as a consequence of which ANP release and, as a result, diuresis/natriuresis occurred.
The experiments were carried out using male Wistar rats having a body weight of 200-400 g. Under neuroleptic analgesia (fentanyl; Hypnorm®, manufacturer Janssen), a catheter was tied into the right femoral vein for the background infusion and the volume loading with isotonic sodium chloride solution. After opening the abdomen, a second catheter was inserted in the bladder and the urethra was tied off so that a measurement of urinary volume, natriuresis and kaliuresis was possible.
The abdomen was closed again, and the animals received a continuous infusion of sodium chloride solution (0.5 ml/100 g of body weight) over the total experimental period of 2 hours. After an equilibration period of 30 minutes, urine samples were collected three times in each case over a period of 10 minutes in a preliminary phase before test substance administration. These preliminary values ("predrug" values) were determined in order to check that a continuous urine flow was taking place in the test animals.
The solutions comprising the test substances were then administered intravenously (bolus injection in the femoral vein) or orally (by means of stomach tube) to groups of 10 rats in each case. For both administration forms, one control animal group in each case received only placebo solutions which contained no active compound. 5 minutes after i.v. administration or 120 minutes after oral administration of the substances, the rats were loaded i.v. with an increased volume of sodium chloride solution (2 ml/100 g of body weight in 2 minutes) and the urine was collected over a period of 60 minutes. The amounts of urine produced in this period were determined, and the sodium and potassium contents contained therein were measured. From the amounts of urine produced, the increase in excretion which took place under volume loading is read off compared with the preliminary values.
In the following Table 1, the increases in urine excretion which have taken place under volume loading after administration of the test substances are indicated in % relative to the urine excretion which has taken place under volume loading after administration of placebo. Furthermore, the amounts of sodium and potassium excreted under volume loading after test substance administration are also indicated in % of the amounts of sodium and potassium excreted under volume loading after administration of placebo. The example numbers in Tables 1 and 2 relate to the subsequent synthesis examples.

[3] = test system: endothelin-converting enzyme (ECE); assay: In-vivo ECE inhibitory action: blood pressure increase induced by BIG-ET in rats; parameters: species or system male CD rats
Experimental: ET is an endogenous strongly vasoconstrictory active substance. An increase in the ET level leads to a blood pressure increase. On infusion of BIG-ET, a blood pressure increase takes place to the extent at which ET is formed from this by ECE-catalysed cleavage. As a measure of the ECE-inhibitory action of the substances, their inhibitory action on the blood pressure increase induced by infusion of BIG-ET was determined.
The experiments were carried out using male CD® rats from Charles River Wiga having a body weight of 220-280 g. Under ketamine/xylazine anaesthesia, a catheter for substance administration was tied into the left jugular vein and a second for the measurement of the blood pressure was tied into the left carotid artery of the animals. After a recovery time of 30 minutes, the test substance was administered intravenously (i.v.) or intraduodenally (i.d.) to the animals as a solution. After administration of the test substances, the animals each received BIG-ET in a dose of 0.5 nmole/kg intravenously. The period between administration of the test substance and the administration of BIG-ET was 5 minutes in each case on i.v. administration, 15 minutes in each case on i.d. administration of the test substances of Example Nos. 18 and 22, and 30 minutes in each case on i.d. administration of the test substances of Example Nos. 8 and 20. During the next 30 minutes, the systolic and the diastolic blood pressure were recorded every 5 minutes. With untreated animals, the infusion of 0.5 nmol/kg of big endothelin leads reproducibly to a drastic blood pressure increase, which lasts about 30 minutes. The maximum of the blood pressure increase is reached after about 5 minutes.
In the following Table 2, the maximum increase in the blood pressure after BIG-ET administration is indicated for control animals treated with placebo solution and for animals which have been pretreated with the test substance solutions in different doses.

[4] = Determination of the minimum toxic dose (i.v.) in rats; assay type: in vivo; details: 215 mg/kg i.v., observed for one week
Experimental: I.v. maximum doses of 215 mg/kg of the test substances (dissolved in 0.1 N aqueous NaOH solution, whose pH had been adjusted to 7.1) were administered to groups of 10 rats each of 250 g body weight (age 5 to 6 weeks). From the time of administration, the animals were carefully observed for 5 hours for clinically recognizable signs of toxicity. Moreover, they were observed twice daily until one week had passed. After expiry of this week, each individual animal was completely dissected and all organs were examined macroscopically. If death or severe toxic symptoms was observed, increasingly smaller doses were administered to further rats until toxic symptoms no longer occured. The lowest dose which caused death or severe toxic symptoms was determined to be the minimum toxic dose.

[5] = 30 μmol/kg i.d., 30 min before BIG-ET 0.5 nmole/kg i.v., control 40
[6] = 30 μmol/kg i.d., 30 min before BIG-ET 0.5 nmole/kg i.v., control 61
[7] = 30 μmol/kg i.d., 15 min before BIG-ET 0.5 nmole/kg i.v., control 40
[8] = 30 μmol/kg i.d., 15 min before BIG-ET 0.5 nmole/kg i.v., control 61

SMILES | Blood pressure increase after BIG-ET administration, diastolic pressure (maximum) [3, 5] [mm Hg] | Blood pressure increase after BIG-ET administration, systolic pressure (maximum) [3, 6] [mm Hg] | Increase in urine excretion under volume loading after administration of test substance in % relative to the urine excretion under volume loading after administration of placebo ([2]; 30.0 μmole/kg p.o.) [%] | K excretion under volume loading: amount excreted after administration of test substance in % of the amount excreted after administration of placebo ([2]; 30.0 μmole/kg p.o.) [%] | Na excretion under volume loading: amount excreted after administration of test substance in % of the amount excreted after administration of placebo ([2]; 30.0 μmole/kg p.o.) [%] | Blood pressure increase after BIG-ET administration, diastolic pressure (maximum) [3, 7] [mm Hg] | Blood pressure increase after BIG-ET administration, systolic pressure (maximum) [3, 8] [mm Hg] | also measured
O=C(O)CN1C(=O)[C@@H](NC(=O)C2(CP(=O)(O)O)CCCC2)CCc2ccccc21 [Example 2, (3S)-3-(1-Phosphonomethylcyclopentane-1-carbonylamino)-2,3,4,5-tetrahydro-2-oxo-1H-1-benzazepine-1-acetic acid] | – | – | – | – | – | – | – | IC50 [1]: 1.7 nM; Increase in urine excretion under volume loading after administration of test substance in % relative to the urine excretion under volume loading after administration of placebo ([2]; 6.0 μmole/kg i.v.): 117%; K excretion under volume loading: amount excreted after administration of test substance in % of the amount excreted after administration of placebo ([2]; 6.0 μmole/kg i.v.): 116%; Na excretion under volume loading: amount excreted after administration of test substance in % of the amount excreted after administration of placebo ([2]; 6.0 μmole/kg i.v.): 147%; Increase in urine excretion under volume loading after administration of test substance in % relative to the urine excretion under volume loading after administration of placebo ([2]; 20.0 μmole/kg i.v.): 149%; K excretion under volume loading: amount excreted after administration of test substance in % of the amount excreted after administration of placebo ([2]; 20.0 μmole/kg i.v.): 182%; Na excretion under volume loading: amount excreted after administration of test substance in % of the amount excreted after administration of placebo ([2]; 20.0 μmole/kg i.v.): 246%; Blood pressure increase after BIG-ET administration, diastolic pressure (maximum) ([3]; 1 mg/kg i.v., 5 min before BIG-ET 0.5 nmole/kg i.v., control 32): 23 mm Hg; Blood pressure increase after BIG-ET administration, systolic pressure (maximum) ([3]; 1 mg/kg i.v., 5 min before BIG-ET 0.5 nmole/kg i.v., control 65): 38 mm Hg; Blood pressure increase after BIG-ET administration, diastolic pressure (maximum) ([3]; 3 mg/kg i.v., 5 min before BIG-ET 0.5 nmole/kg i.v., control 32): 14 mm Hg; Blood pressure increase after BIG-ET administration, systolic pressure (maximum) ([3]; 3 mg/kg i.v., 5 min before BIG-ET 0.5 nmole/kg i.v., control 65): 27 mm Hg; Blood pressure increase after BIG-ET administration, diastolic pressure (maximum) ([3]; 10 mg/kg i.v., 5 min before BIG-ET 0.5 nmole/kg i.v., control 32): 0.4 mm Hg; Blood pressure increase after BIG-ET administration, systolic pressure (maximum) ([3]; 10 mg/kg i.v., 5 min before BIG-ET 0.5 nmole/kg i.v., control 65): -1 mm Hg; signs of toxicity at maximum dose [4]: no significant signs of toxicity
CCOP(=O)(CC1(C(=O)N[C@H]2CCc3ccccc3N(CC(=O)OC(C)(C)C)C2=O)CCCC1)OCc1ccccc1 (stereo partly drawn) [Example 8, tert-Butyl (3S)-3-(1-benzylethylphosphonomethylcyclopentane-1-carbonylamino)-2,3,4,5-tetrahydro-2-oxo-1H-1-benzazepine-1-acetate] | 26 | 25 | – | – | – | – | – | –
CCOC(=O)CN1C(=O)[C@@H](NC(=O)C2(CP(=O)(O)O)CCCC2)CCc2ccccc21 [Example 13, Ethyl (3S)-3-(1-phosphonomethylcyclopentane-1-carbonylamino)-2,3,4,5-tetrahydro-2-oxo-1H-1-benzazepine-1-acetate] | – | – | 168 | 87 | 128 | – | – | –
CCOP(=O)(CC1(C(=O)N[C@H]2CCc3ccccc3N(CC(=O)OC(C)(C)C)C2=O)CCCC1)OCOC(=O)C(C)(C)C (stereo partly drawn) [Example 18, tert-Butyl (3S)-3-[1-(pivaloyloxymethylethylphosphono-methyl)cyclopentane-1-carbonylamino]-2,3,4,5-tetrahydro-2-oxo-1H-benzazepine-1-acetate] | – | – | – | – | – | 17 | 19 | –
CC(C)(C)OC(=O)CN1C(=O)[C@@H](NC(=O)C2(CP(=O)(O)O)CCCC2)CCc2ccccc21 [Example 20, tert-Butyl (3S)-3-[1-phosphonomethylcyclopentane-1-carbonylamino)-2,3,4,5-tetrahydro-2-oxo-1H-1-benzazepine-1-acetate] | 37 | 50 | – | – | – | – | – | –
CCOP(=O)(O)CC1(C(=O)NC2CCc3ccccc3N(CC(=O)O)C2=O)CCCC1 (stereo not shown) [Example 22] | – | – | 127 | 106 | 161 | 21 | 36 | –
